Source: US4146628A, “Antiarrhythmic quinuclidine carboxylic acid xylidide and method of producing the same and similar compounds” (priority 1977, dated 1979)
“And” between values parts separate entries of the source, which are not always exact repeats. Equal entries are not always repeated. “Also recorded” adds a separate entry of the source. Structures can show the parent of a compound that is named as a salt. Where two headings read alike, the source gives them in different places.

Experiments:
[1] = Summary comparison with lidocaine: ouabain-induced arrhythmia; type: in vivo; conditions: i.v.
[2] = Ouabain-induced arrhythmia in the cat; type: in vivo; design: key to S.R. (sinus rhythm), Lidocaine-treated / S.R. (sinus rhythm), Compound I treated: +: denotes return to the rhythm
[3] = Occlusion-induced arrhythmias in conscious dogs, parenteral administration; type: in vivo
Method: The effect of parenteral administration of Compound I on occlusion-induced arrhythmias in conscious dogs was determined. Occulsion was achieved by ligation of the left anteria descending coronary artery on 5 dogs.
Compound I was administered once within 24 hours and once within 48 hours after ligation.

[4] = Summary comparison with lidocaine: side effects; conditions: summary table
[5] = test system: albino mice; assay: Symptoms after intraperitoneal administration to albino mice; type: in vivo; conditions: i.p.
Text: This is confirmed by the tests of compound II, namely the hydrochloride of 2,6-xylidide of quinuclidine-2-carboxylic acid, which was produced both by the method of French Pat. No. 1,566,045, and by the method of the present invention. Administration of Compound II to albino mice by the intraperitoneal route induced the following symptoms: […]

[6] = Effect of Compound II in arrhythmia induced by coronary occlusion; type: in vivo; conditions: dog 15 kg, 24 hours after ligation; i.v. 3 mg per kg
Text: Arrhythmia was induced in a dog of 15 kg body weight, by ligation of the left anteria descending coronary artery with a silk thread number 000.

[7] = Effect of Compound II in drug-induced (ouabain) arrhythmia; type: in vivo; conditions: 2.7 kg cat, nembutal; ouabain 70 μg per kg; i.v. 1.1 mg per kg
Method: Arrhythmia was induced in 2.7 kg cat, previously anesthetized with nembutal, by the slow infusion of ouabain over a period of one hour and to a total dose of 70 μg per kg.

[8] = Interaction with oxotremorine-induced tremors; type: in vivo; conditions: oxotremorine 20 μg/kg i.p.; given i.p. 30 minutes prior
Text: (§1) The lack of interaction of Compound I with other centrally active drugs may also be taken as an indication of its lack of activity in the CNS.

[9] = test system: normal heart; assay: Effect on normal heart (ECG) in nembutal-anesthetized cats; type: in vivo
Method: Nembutal anesthetized cats responded differently. […] If drug administration was discontinued at this stage, then the severe toxic effects would disappear after 40 minutes, the heart reverting to normal sinus rhythm.

[10] = Biological availability by the oral route in dog; type: in vivo
Method: The biological availability of Compound I administered by the oral route was determined first in a conscious, healthy dog that received a dose of 7.5 mg/kg subdivided in 6 gelatin capsules that were slipped down its throat.

[11] = Solubility
[12] = test system: normal heart; assay: Effect on normal heart (ECG) in conscious healthy dogs; type: in vivo
Method: The effect of Compound I on the normal heart was determined by the administration of the compound as a bolus intravenous injection to conscious healthy dogs for which lead II of the electrocardiogram was monitored for as long as 2 hours after injection.
In one case, a single dose of 5 mg/kg was administered rapidly in order to achieve a high but transient concentration in the heart. […] The ECG record reverted to normal within 15 minutes.

[13] = test system: normal heart; assay: Effect on normal heart (ECG) in nembutal-anesthetized dog; type: in vivo; conditions: nembutal 25 mg/kg; cumulative i.v. dose 6 mg/kg over 30 minutes
[14] = Interaction with Indoklon-induced seizures; type: in vivo; conditions: Indoklon by inhalation 30 minutes later
Text: as §1

[15] = in vivo
[16] = Ouabain-induced arrhythmia in dogs; type: in vivo; design: key to S.R. (sinus rhythm), Compound I treated: +: denotes return to the rhythm
Method: In other experiments using mongrel dogs, the animals were anesthetized by an i.v. injection of nembutal (25 mg/kg), then arrhythmia was induced by the administration of decreasing doses of ouabain at 30 minute intervals, 40, 20 and 10 μg/kg. Treatment with Compound I was then carried out as described for cats.

[17] = Interaction with metrazole-induced convulsions; type: in vivo; conditions: metrazole 100 mg/kg; i.p. 30, 60 and 90 minutes prior to metrazole
Text: as §1

[18] = Occlusion-induced arrhythmias in conscious dogs, oral administration; type: in vivo; conditions: oral 15-20 mg/kg in 4 to 6 gelatin capsules, all cases
Method: Tests were also carried out to determine the effect of oral administration of Compound I on occlusion induced arrhythmias in conscious dogs.
Arrhythmia was induced by occlusion of the left anterior descending artery, as above described. Following this, Compound I was administered orally to the animals at the rate of 15-20 mg/kg, the dose being divided among 4 to 6 gelatin capsules, without prior treatment such as micronization or admixture with a diluent or carrier.

[19] = Interaction with electro shock-induced seizure; type: in vivo; conditions: 30 volts
Text: as §1

[20] = in vivo; remark: listed apart in the source
[21] = Pharmacokinetic parameters in conscious dogs with occlusion-induced arrhythmia; type: in vivo; conditions: dog, blood, iv
Method: The pharmacokinetic parameters of Compound I were determined in conscious dogs suffering from occlusion-induced arrhythmia. After intravenous injection of a single therapeutic dose, venous blood samples were withdrawn at given intervals, heparinized and analyzed for their content of Compound I by gas chromatography.

[22] = test system: conscious, healthy dogs; conditions: dog, in vivo, iv, 5 mg/kg
[23] = Acute toxicity, i.p. injection in mice; conditions: mouse, in vivo, ip, 0.5% solution, male albino ICR mice, probit analysis
Method: The toxicity of Compound I was determined by i.p. injection of a 0.5% solution of the drug into male, albino ICR mice weighing 20-25 g each. A group of six mice was used for each dose.

[24] = cat 13, lidocaine HCl single i.v. injection 1.6 mg/kg
[25] = cat, lidocaine HCl single i.v. injection 4 mg/kg, 4 mg/kg
[26] = dog, conditions as Table 1, hydrochloride

CCN(CC)CC(=O)Nc1c(C)cccc1C [Lidocaine]
Onset of effect, ouabain-induced arrhythmia [1]: about 2 minutes
B.P. (blood pressure), Lidocaine-treated [2, 24]: 130/100
Duration (period of observation from onset of reversal of arrhythmia) [2, 24]: 3 min
H.R. (heart rate), Lidocaine-treated [2, 24]: 80 per min
S.R. (sinus rhythm), Lidocaine-treated [2, 24]: +
B.P. (blood pressure), Lidocaine-treated [2, 25]: 60/40 and 120/80
H.R. (heart rate), Lidocaine-treated [2, 25]: 150 per min and 110 per min
reappearance of arrhythmia after lidocaine ([2]; cats 12 and 13): Arrhythmia reappeared
Onset of effect, occlusion-induced arrhythmia within 1st 24 hr. ([3]; i.v.): 2 min
Single therapeutic dose for suppression of Occlusion-induced arrhythmia within 1st 24 hr. after operation ([3]; i.v.): often ineffective
effect of lidocaine on occlusion-induced arrhythmia ([3]; same animals, bolus i.v. 3 mg/kg): either completely ineffective or of ultra-short duration
Side effects: Emesis [4]: partial
Side effects: Hypotension [4]: about 20%

Cc1cccc(C)c1NC(=O)C1CC2CCN1CC2 (centres unmarked) [Compound II, 2,6-xylidide of quinuclidine-2-carboxylic acid hydrochloride]
cause of death ([5]; 100 mg per kg): respiratory failure
lethal dose ([5]; albino mice): 100 mg. per kg
Effects ([5]; dose range 20-30 mg per kg): increased locomotion, excitation
Effects ([5]; dose range 40-60 mg per kg, hydrochloride): pronounced neurotoxicity, ataxia; also recorded: partial paralysis
neurotoxicity [6]: clear signs of neurotoxicity such as undue excitement and lateral movements of the head
response in the electrocardiogram [6]: only a fleeting response in the electrocardiogram with only a few signs of improvement
effect in ouabain-induced arrhythmia [7]: precipitated ventricular fibrillation and death

Cc1cccc(C)c1NC(=O)C1CN2CCC1CC2 (centres unmarked) [Compound I, 2,6-xylidide of quinuclidine-3-carboxylic acid hydrochloride]
Duration of effect, ouabain-induced arrhythmia [1]: about 1 hour
Onset of effect, ouabain-induced arrhythmia [1]: about 2 minutes
effect on oxotremorine-induced tremors [8]: did not affect oxotremorine-induced tremors
B.P. (blood pressure), Compound I treated ([2]; cat 1, 0.5 mg/kg used): 80/60
Duration (period of observation from onset of reversal of arrhythmia) ([2]; cat 1, 0.5 mg/kg used): 10 min
H.R. (heart rate), Compound I treated ([2]; cat 1, 0.5 mg/kg used): 100 per min
S.R. (sinus rhythm), Compound I treated ([2]; cat 1, 0.5 mg/kg used): +
Duration (period of observation from onset of reversal of arrhythmia) ([2]; cat 3, bolus i.v. 1 mg/kg, after ouabain): 240 min
improvement of the ECG ([2]; cat, single dose 1 mg/kg, 10 minutes after constant arrhythmia, ouabain 70-90 μg/kg cumulative): marked improvement of the ECG that lasted much longer than any improvement achieved with lidocaine
reappearance of arrhythmia and response to additional dose ([2]; cats marked ##, additional dose 1 mg/kg for 2, 7 and 0.5 mg/kg for 10): suppressed again with an additional dose of EO-122
effect on ECG ([9]; cumulative dose 6 mg/kg): broadening of the QRS occurred but sinus rhythm was maintained
effect on ECG ([9]; cumulative dose 10.5 mg/kg): broadening of the QRS occurred but sinus rhythm was maintained
effect on ECG / conduction ([9]; cumulative dose 16.5 mg/kg, hydrochloride, 16.5 mg/kg): second degree AV block occurred; also recorded: Atrial conduction slowed down
time to disappearance of severe toxic effects ([9]; drug administration discontinued after 16.5 mg/kg cumulative, heart reverting to normal sinus rhythm): 40 min
effect on ECG / heart ([9]; further […], total cumulative dose 23.5 mg/kg): high degree AV block, followed by cardiac standstill
effect on ECG ([9]; total dose of 3 mg/kg in small increments over 34 minutes): leftward shift of the QRS complex
bioavailability in conscious arrhythmic dogs ([10]; conscious arrhythmic dogs, oral, relative to healthy dog): of the same order
bioavailability ([10]; dog, in vivo, po, summary table): ~80%
Cmax ([10]; in vivo, oral 7.5 mg/kg in 6 gelatin capsules, conscious healthy dog, read-out: Peak blood concentration): 1500 to 2000 ng/mL
solubility [11]: highly soluble
effect on ECG ([12]; dog, in vivo, 5 mg/kg): Broadening of the QRS complex was observed
time for ECG record to revert to normal ([12]; dog, in vivo, 5 mg/kg): ≤ 15 min
change in the ECG ([12]; dog, in vivo, iv, 3 mg/kg): no change in the ECG
other signs of overt toxicity ([12]; single dose of 5 mg/kg administered rapidly, one case): no other signs of overt toxicity
change in the ECG [13]: no change in the ECG
effect against Indoklon-induced seizures [14]: equally ineffective
side effects [15]: absence of side effects such as hypotension and CNS stimulation
H.R. (heart rate), Compound I treated ([16]; dog, conditions as Table 1): 170 per min
S.R. (sinus rhythm), Compound I treated ([16]; dog, conditions as Table 1): +
B.P. (blood pressure), Compound I treated [16, 26]: 100/80 and 140/110
Duration (period of observation from onset of reversal of arrhythmia) [16, 26]: 40 min and 25 min
reappearance of arrhythmia and response to additional dose ([16]; dogs 14, 15, one i.v. injection of […]): Arrhythmia reappeared after this period but was suppressed
reversal of VT to normal sinus rhythm ([16]; dogs, 1 mg/kg single doses): reversal of VT to normal sinus shythm was achieved
effect on metrazole-induced convulsions [17]: did not affect metrazole-induced convulsions
restoration of normal sinus rhythm [18]: fully effective in the restoration of normal sinus rhythm
effect against electro shock-induced seizure [19]: equally ineffective
Side effects: Hypotension [20]: none
half-life ([21]; i.v. single therapeutic dose, conscious arrhythmic dogs, venous blood, GC, read-out: Biological half-life (t1/2)): 4 to 5 h
half-life ([21]; i.v. single therapeutic dose, conscious arrhythmic dogs, read-out: t1/2 for distribution): 0.0833 h
half-life ([21]; summary table, read-out: t1/2 for distribution): 0.0833 h
half-life ([21]; summary table, read-out: t1/2 for elimination): 4 to 5 h
Vd ([21]; summary table, read-out: volume of distribution): 0.2 L/kg
change in posture, behavior or mood [22]: no significant change in posture, behavior or mood from control
Onset of effect, occlusion-induced arrhythmia within 1st 24 hr. ([3]; i.v.): 2 min
duration of full, uninterrupted sinus rhythm ([3]; one bolus i.v. injection of 3 mg/kg within 24 hours after ligation): ≤ 20 min
LD50 [23]: 60 ± 5 mg/kg
Side effects: CNS-effects [4]: none
Side effects: Emesis [4]: partial
